Patent US20070212412A1, “STABLE SOLID FORMULATION OF SERTINDOLE” (H. Lundbeck A/S, priority 2005, published 2007)

Key:
[1] = system: α1-adrenergic receptors; conditions: cited from earlier work
[2] = clinical development programme; cited from earlier work
[3] = Light stability study of film-coated sertindole tablets (HPLC degradation products); assay type: physicochemical; conditions: film-coated tablets with white film-coating layer containing titanium dioxide, 2-4% film-layer relative to tablet core weight
Description: 10 tablets of each sample were placed in a light cabinet (Heraeus Suntest CPS+) and were exposed to light providing an overall illumination of not less than 1.2 million lux hours, and an integrated near ultraviolet energy of not less than 200 watt hours/m^2. The tablets were placed directly in petri dishes in a single layer. […] The dark control was placed beside the sample and was protected against light, wrapped in aluminium foil. After light exposure the tablets (sample and dark control) were analysed for degradation products by HPLC analysis.
The samples of 10 tablets were disintegrated by the means of 0.1 M acetic acid. Next acetonitrile was added for extraction and subsequently the samples were made to volume with methanol/water (50/50). Final concentration: 0.4 mg/ml.
Samples from the light stability studies were analysed by HPLC.
Reversed phase chromatography was performed using a LiChrospher 100 RP-8, 5 μm, 250×4 mm ID with pre-column: LiChrospher 100 RP-8, 5 μm.
The mobile phase consisted of Tetrahydrofurane/acetonitrile/25 mM phosphate buffer pH 7.2 (7/43/50). […]
Quantification of the degradation products was done from area %, using the normalization factor 0.9 for Lu 26-115 (1-(2-(4-(5-Chloro-1-(4-fluorophenyl)-1H-indol-3-yl)-1-piperidinyl-1-oxide)ethyl)-2-imidazolidinone) and the normalization factor 1.0 for other impurities.

[4] = system: serotonin 5-HT2; conditions: cited from earlier work
[5] = molecular target: dopamine D2 (Homo sapiens, UniProt P14416); conditions: cited from earlier work
Chain of dopamine D2 (P14416 whole entry): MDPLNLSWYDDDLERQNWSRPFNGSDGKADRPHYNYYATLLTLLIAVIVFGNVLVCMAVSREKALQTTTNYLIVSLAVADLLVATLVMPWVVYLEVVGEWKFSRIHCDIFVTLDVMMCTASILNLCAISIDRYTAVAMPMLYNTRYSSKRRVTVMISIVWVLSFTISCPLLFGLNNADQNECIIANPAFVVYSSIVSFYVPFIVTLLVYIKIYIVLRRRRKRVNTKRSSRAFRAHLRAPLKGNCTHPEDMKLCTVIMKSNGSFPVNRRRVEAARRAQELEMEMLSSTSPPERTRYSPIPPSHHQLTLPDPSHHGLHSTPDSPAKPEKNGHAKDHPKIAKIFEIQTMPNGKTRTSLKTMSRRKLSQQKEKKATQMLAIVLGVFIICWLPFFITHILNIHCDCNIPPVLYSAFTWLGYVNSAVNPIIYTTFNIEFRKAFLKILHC

Structure (SMILES): O=C1NCCN1CCN1CCC(c2cn(-c3ccc(F)cc3)c3ccc(Cl)cc23)CC1 [Sertindole]
- affinity for α1-adrenergic receptors [1]: high affinity
- effect on symptoms of schizophrenia [2]: effect against both positive and negative symptoms of schizophrenia
- incidence of extrapyramidal side effects [2]: placebo-level incidence
- tolerability [2]: well-tolerated
- light sensitivity [3]: undergoes a light-induced degradation process
- affinity for serotonin 5-HT2 [4]: high affinity
- affinity for dopamine D2 [5]: high affinity
